Measured values: patent US12565505B2, “mTORC modulators and uses thereof” (Aeovian Pharmaceuticals, Inc., priority 2019, dated 2026)

How the values were obtained:
[1] = target: T1, mTORC2 (Homo sapiens, UniProt P42345+P62942); test: Inhibition assay for mTORC2: phosphorylation of pAkt at Ser473, AlphaLISA SureFire in PC3 cells; format: cell-based; settings: PC3 cells, 24 hours treatment, analogs substituted at C40 and C16 (C16 diastereomer mixtures not isolated), read-out: pIC50 mTORC2 (converted)
T1 construct: endogenous in cells; host or cells: PC3 cells (human prostate adenocarcinoma)
In short: (§1)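 Human prostate adenocarcinoma PC3 cells treated with compounds for 24 h. AlphaLISA SureFire read-out of pS6K Thr389 for mTORC1 and pAkt Ser473 for mTORC2, from which IC50s were derived.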

[2] = target: T2, mTORC1 (Homo sapiens, UniProt P42345+P62942); test: Inhibition assay for mTORC1: phosphorylation of pS6K at Thr389, AlphaLISA SureFire in PC3 cells; format: cell-based; settings: PC3 cells, 24 hours treatment, pS6K Thr389; analogs substituted at C40 and C16 (C16 diastereomer mixtures not isolated); read-out: pIC50 mTORC1 (converted)
T2 construct: endogenous in cells; host or cells: PC3 cells (human prostate adenocarcinoma)
In short: as §1

Row | SMILES | IC50 [1] [µM] | IC50 [2] [µM]
1 | CO[C@@H]1C[C@H](C[C@@H](C)[C@@H]2CC(=O)[C@H](C)/C=C(\C)[C@@H](O)[C@@H](OC)C(=O)[C@H](C)C[C@H](C)/C=C/C=C/C=C(\C)C(OCCc3ccccc3)C[C@@H]3CC[C@@H](C)[C@@](O)(O3)C(=O)C(=O)N3CCCCC3C(=O)O2)CC[C@H]1OCCCO (stereo partly drawn) [Compound 94, (1R,9S,12SR,15R,16E,18R,19R,21R,23S,24E,26E,28E,32S,35R)-1,18-dihydroxy-12-[(1R)-2-[(1S,3R,4R)-4-(3-hydroxypropoxy)-3-methoxy-cyclohexyl]-1-methyl-ethyl]-19-methoxy-15,17,21,23,29,35-hexamethyl-30-(2-phenylethoxy)-11,36-dioxa-4-azatricyclo[30.3.1.0^4,9]hexatriaconta-16,24,26,28-tetraene-2,3,10,14,20-pentone] | 1 to 10 | < 0.000316
2 | CO[C@@H]1C[C@H](C[C@@H](C)[C@@H]2CC(=O)[C@H](C)/C=C(\C)[C@@H](O)[C@@H](OC)C(=O)[C@H](C)C[C@H](C)/C=C/C=C/C=C(\C)C(OCCc3ccccc3)C[C@@H]3CC[C@@H](C)[C@@](O)(O3)C(=O)C(=O)N3CCCCC3C(=O)O2)CC[C@H]1OC(=O)N(C)CCCN(C)C (stereo partly shown) [Compound 95] | < 1 | < 0.000316
3 | CO[C@@H]1C[C@H](C[C@@H](C)[C@@H]2CC(=O)[C@H](C)/C=C(\C)[C@@H](O)[C@@H](OC)C(=O)[C@H](C)C[C@H](C)/C=C/C=C/C=C(\C)C(OC(C)C)C[C@@H]3CC[C@@H](C)[C@@](O)(O3)C(=O)C(=O)N3CCCCC3C(=O)O2)CC[C@H]1OCCCc1ccccc1 (stereo partly shown) [Compound 96] | > 10 | > 0.00316
4 | CO[C@@H]1C[C@H](C[C@@H](C)[C@@H]2CC(=O)[C@H](C)/C=C(\C)[C@@H](O)[C@@H](OC)C(=O)[C@H](C)C[C@H](C)/C=C/C=C/C=C(\C)C(OCCc3ccccc3)C[C@@H]3CC[C@@H](C)[C@@](O)(O3)C(=O)C(=O)N3CCCCC3C(=O)O2)CC[C@H]1OCCCN1CCN(C)CC1 (stereo partly shown) [Compound 97] | < 1 | < 0.000316
5 | CO[C@@H]1C[C@H](C[C@@H](C)[C@@H]2CC(=O)[C@H](C)/C=C(\C)[C@@H](O)[C@@H](OC)C(=O)[C@H](C)C[C@H](C)/C=C/C=C/C=C(\C)C(OCC(C)(C)O)C[C@@H]3CC[C@@H](C)[C@@](O)(O3)C(=O)C(=O)N3CCCCC3C(=O)O2)CC[C@H]1OCCCO (stereo partly shown) [Compound 98] | 1 to 10 | 0.000316 to 0.00316
6 | CO[C@@H]1C[C@H](C[C@@H](C)[C@@H]2CC(=O)[C@H](C)/C=C(\C)[C@@H](O)[C@@H](OC)C(=O)[C@H](C)C[C@H](C)/C=C/C=C/C=C(\C)C(OCCc3ccccc3)C[C@@H]3CC[C@@H](C)[C@@](O)(O3)C(=O)C(=O)N3CCCCC3C(=O)O2)CC[C@H]1OCCO (stereo partly shown) [Compound 99] | 1 to 10 | < 0.000316
7 | CO[C@@H]1C[C@H](C[C@@H](C)[C@@H]2CC(=O)[C@H](C)/C=C(\C)[C@@H](O)[C@@H](OC)C(=O)[C@H](C)C[C@H](C)/C=C/C=C/C=C(\C)C(OCCc3ccccc3)C[C@@H]3CC[C@@H](C)[C@@](O)(O3)C(=O)C(=O)N3CCCCC3C(=O)O2)CC[C@H]1OCCCN1CCCCC1 (stereo partly shown) [Compound 101] | < 1 | < 0.000316
8 | COCCCCOC1C[C@@H]2CC[C@@H](C)[C@@](O)(O2)C(=O)C(=O)N2CCCCC2C(=O)O[C@H]([C@H](C)C[C@@H]2CC[C@@H](OCCO)[C@H](OC)C2)CC(=O)[C@H](C)/C=C(\C)[C@@H](O)[C@@H](OC)C(=O)[C@H](C)C[C@H](C)/C=C/C=C/C=C/1C (stereo partly shown) [Compound 102] | 1 to 10 | < 0.000316
9 | CO[C@@H]1C[C@H](C[C@@H](C)[C@@H]2CC(=O)[C@H](C)/C=C(\C)[C@@H](O)[C@@H](OC)C(=O)[C@H](C)C[C@H](C)/C=C/C=C/C=C(\C)C(OCCc3ccccc3)C[C@@H]3CC[C@@H](C)[C@@](O)(O3)C(=O)C(=O)N3CCCCC3C(=O)O2)CC[C@H]1OC(=O)NCCN(C)C (stereo partly drawn) [Compound 104, [(1R,2R,4S)-4-[(2R)-2-[(1R,9S,12S,15R,16E,18R,19R,21R,23S,24E,26E,28E,32S,35R)-1,18-dihydroxy-19-methoxy-15,17,21,23,29,35-hexamethyl-2,3,10,14,20-pentaoxo-30-(2-phenylethoxy)-11,36-dioxa-4-azatricyclo[30.3.1.0^4,9]hexatriaconta-16,24,26,28-tetraen-12-yl]propyl]-2-methoxy-cyclohexyl] N-[2-(dimethylamino)ethyl]carbamate] | < 1 | < 0.000316
10 | CO[C@@H]1C[C@H](C[C@@H](C)[C@@H]2CC(=O)[C@H](C)/C=C(\C)[C@@H](O)[C@@H](OC)C(=O)[C@H](C)C[C@H](C)/C=C/C=C/C=C(\C)C(OCCc3ccccc3)C[C@@H]3CC[C@@H](C)[C@@](O)(O3)C(=O)C(=O)N3CCCCC3C(=O)O2)CC[C@H]1OC(=O)N(C)CCO (stereo partly shown) [Compound 105] | < 1 | < 0.000316
11 | CO[C@@H]1C[C@H](C[C@@H](C)[C@@H]2CC(=O)[C@H](C)/C=C(\C)[C@@H](O)[C@@H](OC)C(=O)[C@H](C)C[C@H](C)/C=C/C=C/C=C(\C)C(OCCC3CCOCC3)C[C@@H]3CC[C@@H](C)[C@@](O)(O3)C(=O)C(=O)N3CCCCC3C(=O)O2)CC[C@H]1OCCCO (stereo partly shown) [Compound 106] | 1 to 10 | 0.000316 to 0.00316
12 | CO[C@@H]1C[C@H](C[C@@H](C)[C@@H]2CC(=O)[C@H](C)/C=C(\C)[C@@H](O)[C@@H](OC)C(=O)[C@H](C)C[C@H](C)/C=C/C=C/C=C(\C)C(OCCc3ccccc3)C[C@@H]3CC[C@@H](C)[C@@](O)(O3)C(=O)C(=O)N3CCCCC3C(=O)O2)CC[C@H]1OCCCN1CCOCC1 (stereo partly shown) [Compound 108] | < 1 | < 0.000316
13 | CO[C@@H]1C[C@H](C[C@@H](C)[C@@H]2CC(=O)[C@H](C)/C=C(\C)[C@@H](O)[C@@H](OC)C(=O)[C@H](C)C[C@H](C)/C=C/C=C/C=C(\C)C(OCCc3ccccc3)C[C@@H]3CC[C@@H](C)[C@@](O)(O3)C(=O)C(=O)N3CCCCC3C(=O)O2)CC[C@H]1OC(=O)N(C)CCN(C)C (stereo partly shown) [Compound 109] | < 1 | < 0.000316
14 | CO[C@@H]1C[C@H](C[C@@H](C)[C@@H]2CC(=O)[C@H](C)/C=C(\C)[C@@H](O)[C@@H](OC)C(=O)[C@H](C)C[C@H](C)/C=C/C=C/C=C(\C)C(OCCc3ccccc3)C[C@@H]3CC[C@@H](C)[C@@](O)(O3)C(=O)C(=O)N3CCCCC3C(=O)O2)CC[C@H]1OC(=O)NCCc1c[nH]cn1 (stereo partly shown) [Compound 110] | < 1 | < 0.000316
15 | CO[C@@H]1C[C@H](C[C@@H](C)[C@@H]2CC(=O)[C@H](C)/C=C(\C)[C@@H](O)[C@@H](OC)C(=O)[C@H](C)C[C@H](C)/C=C/C=C/C=C(\C)C(OCCc3ccccc3)C[C@@H]3CC[C@@H](C)[C@@](O)(O3)C(=O)C(=O)N3CCCCC3C(=O)O2)CC[C@H]1OC(=O)NCCO (stereo partly drawn) [Compound 111, [(1R,2R,4S)-4-[(2R)-2-[(1R,9S,12S,15R,16E,18R,19R,21R,23S,24E,26E,28E,32S,35R)-1,18-dihydroxy-19-methoxy-15,17,21,23,29,35-hexamethyl-2,3,10,14,20-pentaoxo-30-(2-phenylethoxy)-11,36-dioxa-4-azatricyclo[30.3.1.0^4,9]hexatriaconta-16,24,26,28-tetraen-12-yl]propyl]-2-methoxy-cyclohexyl] N-(2-hydroxyethyl)carbamate] | < 1 | < 0.000316
16 | CO[C@@H]1C[C@H](C[C@@H](C)[C@@H]2CC(=O)[C@H](C)/C=C(\C)[C@@H](O)[C@@H](OC)C(=O)[C@H](C)C[C@H](C)/C=C/C=C/C=C(\C)C(OCCc3ccccc3)C[C@@H]3CC[C@@H](C)[C@@](O)(O3)C(=O)C(=O)N3CCCCC3C(=O)O2)CC[C@H]1OC(=O)N(CCO)CCO (stereo partly drawn) [Compound 112, [(1R,2R,4S)-4-[(2R)-2-[(1R,9S,12S,15R,16E,18R,19R,21R,23S,24E,26E,28E,32S,35R)-1,18-dihydroxy-19-methoxy-15,17,21,23,29,35-hexamethyl-2,3,10,14,20-pentaoxo-30-(2-phenylethoxy)-11,36-dioxa-4-azatricyclo[30.3.1.0^4,9]hexatriaconta-16,24,26,28-tetraen-12-yl]propyl]-2-methoxy-cyclohexyl] N,N-bis(2-hydroxyethyl)carbamate] | < 1 | < 0.000316
17 | CO[C@@H]1C[C@H](C[C@@H](C)[C@@H]2CC(=O)[C@H](C)/C=C(\C)[C@@H](O)[C@@H](OC)C(=O)[C@H](C)C[C@H](C)/C=C/C=C/C=C(\C)C(OCCc3ccccc3)C[C@@H]3CC[C@@H](C)[C@@](O)(O3)C(=O)C(=O)N3CCCCC3C(=O)O2)CC[C@H]1OC(=O)NCCN1CCCCC1 (stereo partly shown) [Compound 113] | < 1 | < 0.000316
18 | CO[C@@H]1C[C@H](C[C@@H](C)[C@@H]2CC(=O)[C@H](C)/C=C(\C)[C@@H](O)[C@@H](OC)C(=O)[C@H](C)C[C@H](C)/C=C/C=C/C=C(\C)C(OCCc3ccccc3)C[C@@H]3CC[C@@H](C)[C@@](O)(O3)C(=O)C(=O)N3CCCCC3C(=O)O2)CC[C@H]1OC(=O)NCCn1cnnn1 (stereo partly shown) [Compound 114] | < 1 | < 0.000316
19 | CO[C@@H]1C[C@H](C[C@@H](C)[C@@H]2CC(=O)[C@H](C)/C=C(\C)[C@@H](O)[C@@H](OC)C(=O)[C@H](C)C[C@H](C)/C=C/C=C/C=C(\C)C(OCc3ccccc3)C[C@@H]3CC[C@@H](C)[C@@](O)(O3)C(=O)C(=O)N3CCCCC3C(=O)O2)CC[C@H]1OC(=O)NCCN1CCOCC1 (stereo partly shown) [Compound 115] | < 1 | < 0.000316
20 | CO[C@@H]1C[C@H](C[C@@H](C)[C@@H]2CC(=O)[C@H](C)/C=C(\C)[C@@H](O)[C@@H](OC)C(=O)[C@H](C)C[C@H](C)/C=C/C=C/C=C(\C)C(OCc3ccccc3)C[C@@H]3CC[C@@H](C)[C@@](O)(O3)C(=O)C(=O)N3CCCCC3C(=O)O2)CC[C@H]1OCCCc1ccccc1 (stereo partly shown) [Compound 116] | < 1 | 0.000316 to 0.00316
